In patent publication EP2924040A1, “2-Amino-1-(o-tolyl)pyrrolo[3,2-b]quinoxaline-3-carboxamide derivates” (Universität Zürich, priority 2014, dated 2015):

Assays:
KM12 = assay: Cell culture and GI50 determination (resazurin); assay type: cell-based; details: Homo sapiens
Description: (§1) MDA-MB-231 (breast cancer) and KM12 (colon cancer) cells obtained from the UZH Cancer Institute, HOP-92 (lung cancer) cells purchased from the National Cancer Institute (NCl) and A498 (kidney cancer) cells obtained from Prof. Krek (Institute of Cell Biology, ETH Zurich) were cultured in Dulbecco's modified Eagle's medium (DMEM) supplemented with 10% (v/v) fetal bovine serum. K562 leukemia cells obtained from Dr. Silvio Hemmi (Institute of Molecular Life Sciences, UZH) were cultured using RPMI medium supplemented with 5% (v/v) fetal bovine serum. All the media was additionally supplemented with 100 units/mL of penicillin, 100µg/mL of streptomycin, 4.5 g/L glucose, 0.11g/L sodium pyrubate and 2mM glutamine and the cells were grown at 37 °C in 5% CO2 atmosphere with 80% relative humidity.
(§2) MDA-MB-231, HT-29, KM12, HOP-92 and A498 cells were plated at 10,000 cells per well (100 µL per well) in 96-well culture dishes and allowed to incubate for 24 h. The old media was removed, the cells were washed with PBS (phosphate-buffered saline) and fresh media was added. A 5 mmol/L solution of inhibitor (in 100% DMSO) was serially diluted in the culture media (12 different concentrations were used) and allowed to incubate for 72 h (MDA-MB-231) or 48h (A498). Control cells were treated with the same DMSO concentrations. After the incubation period the media was once more removed and the cells were washed with PBS to then be incubated with fresh media containing 86 nmol/L resazurin. After 3 hours, the fluorescence was quantified using a fluorescence microplate reader (Biotek, FLx800™) at the respective excitation and emission wavelength of 560 and 590 nm. Resazurin becomes fluorescent under mitochondrial reduction and its emission directly correlates with the metabolic stability of the cells. The measured fluorescence values were corrected from the control samples containing DMSO and GI50 values were determined by plotting the fraction of metabolically active cells against the log of the drug concentration. All measurements were performed at least in triplicate.

A498 = assay: Cell culture and GI50 determination (resazurin); assay type: cell-based; details: Homo sapiens, A498, 48h incubation
Description: as §1, §2

MDA-MB-231 = assay: Cell culture and GI50 determination (resazurin); assay type: cell-based; details: Homo sapiens, MDA-MB-231, 72 h incubation
Description: as §1, §2

HOP-92 = assay: Cell culture and GI50 determination (resazurin); assay type: cell-based; details: Homo sapiens; HOP-92, resazurin
Description: as §1, §2

EphB4 = biological target: T1, EphB4 (Homo sapiens, UniProt P54760); assay: Cellular phosphorylation assay (EphB4 autophosphorylation, sandwich ELISA); assay type: cell-based; parameters: stably transfected to overexpress full-length human EphB4; host or cells: mouse embryonic fibroblast cells; details: mouse embryonic fibroblast cells overexpressing full-length human EphB4; 90 min at 37 °C; stimulated with murine ephrinB2-Fc
T1 sequence (P54760 16-987): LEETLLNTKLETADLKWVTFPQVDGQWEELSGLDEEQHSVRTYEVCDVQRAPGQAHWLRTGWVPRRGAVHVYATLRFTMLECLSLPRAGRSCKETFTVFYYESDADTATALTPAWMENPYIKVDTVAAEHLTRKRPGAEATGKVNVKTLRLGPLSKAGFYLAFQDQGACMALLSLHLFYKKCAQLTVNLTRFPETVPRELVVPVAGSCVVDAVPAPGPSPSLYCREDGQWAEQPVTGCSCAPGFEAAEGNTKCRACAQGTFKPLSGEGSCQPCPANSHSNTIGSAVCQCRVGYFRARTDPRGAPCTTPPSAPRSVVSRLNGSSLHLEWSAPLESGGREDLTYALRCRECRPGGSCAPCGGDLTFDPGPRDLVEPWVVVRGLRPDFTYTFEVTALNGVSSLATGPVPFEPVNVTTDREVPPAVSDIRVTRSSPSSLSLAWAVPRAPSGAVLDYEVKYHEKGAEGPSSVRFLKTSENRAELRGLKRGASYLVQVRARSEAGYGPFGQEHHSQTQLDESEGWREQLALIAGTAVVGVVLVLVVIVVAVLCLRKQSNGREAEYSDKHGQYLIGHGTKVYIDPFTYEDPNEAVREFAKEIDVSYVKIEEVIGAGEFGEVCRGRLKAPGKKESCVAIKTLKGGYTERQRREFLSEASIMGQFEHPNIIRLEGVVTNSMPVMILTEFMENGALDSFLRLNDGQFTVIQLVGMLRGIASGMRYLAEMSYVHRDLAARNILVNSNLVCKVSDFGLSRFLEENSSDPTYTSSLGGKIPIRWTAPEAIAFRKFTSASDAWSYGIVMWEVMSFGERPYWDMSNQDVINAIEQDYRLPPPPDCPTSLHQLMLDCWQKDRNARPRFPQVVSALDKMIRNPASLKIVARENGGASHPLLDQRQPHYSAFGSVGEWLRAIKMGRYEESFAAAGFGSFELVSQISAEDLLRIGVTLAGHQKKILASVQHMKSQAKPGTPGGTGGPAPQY
Description: Mouse embryonic fibroblast cells, stably transfected to overexpress full-length human EphB4, were plated at 4×10^4 cells/well in DMEM supplemented with 10% FCS in 48-well culture dishes. Medium was replaced by DMEM without FCS before test compounds prediluted in 100% DMSO were added (final DMSO concentration of 1 %). […] Quantification of EphB4 phosphorylation was assessed in a 96-well plate via sandwich ELISA using a myc capture antibody and an antiphosphotyrosine detection antibody.

[1] = In vivo pharmacokinetics in blood plasma; details: male CD-1 mice
Description: Evaluation of the in vivo pharmacokinetics of a subset of compounds was performed through analysis of compound concentration in the blood plasma of male CD-1 (ICD) mice (each weighing 20-30 g) over a 24 hour period (at time points of 3, 10, 30, 60, 120, 240, 360 and 1440 minutes) following a single oral (PO) and intravenous (IV, in tail vein) administration of a compound dose corresponding to 5 mg of compound/kg of mouse body weight (PO) and 1 mg of compound/kg of mouse body weight (IV). For IV dosing, each compound was formulated as a clear solution in DMSO/Solutol® HS 15/phosphate-buffered saline, pH 7.4 (PBS) (5/5/90, v/v/v). For PO dosing, compounds were formulated as a homogeneous suspension in DMSO/1% methylcellulose (5/95, v/v).
At the relevant time point, blood samples (300-400 µL) were collected from the mice under general inhalant anaesthesia by cardiac puncture and stored on ice in 0.6 mL polypropylene heparin-lithium-coated tubes. Within 1 hour of collection, each tube was centrifuged at 2500 G for 15 minutes at 4°C and harvested plasma stored at -20°C.
Compound concentration in plasma at each time point was determined following acetonitrile precipitation of each sample followed by HPLC-MS analysis performed in triplicates, i.e., based on the mean of the compound concentration at that time point in blood samples of three mice.
Table 3: In vivo pharmacokinetics (min: minutes)

Compound `Cc1ccc(O)cc1-n1c(N)c(C(N)=O)c2nc3ccccc3nc21` [Compound 2, 2-Amino-1-(5-hydroxy-2-methylphenyl)-1H-pyrrolo[2,3-b]quinoxaline-3-carboxamide] has a GI50 (KM12) of 1550 nM, a GI50 (A498) of 5.88 µM and a GI50 (MDA-MB-231) of 2640 nM. The GI50 (HOP-92) was 490 nM, the IC50 (EphB4) was less than 6 nM and the “T1/2 (min, IV)” value ([1]; IV 1 mg/kg, plasma) was 101 min. The “Bioavailibility (%)” value ([1]; [AUClast(PO)*Dose(IV)] / [AUClast(IV)*Dose(PO)]) was 25%, the Cmax ([1]; mouse, PO 5 mg/kg, plasma) was 240 ng/mL and the half-life ([1]; mouse, PO 5 mg/kg, plasma, read-out: T1/2 (min, PO)) was 100 min. It also gave a Tmax ([1]; mouse, PO 5 mg/kg, plasma, read-out: Tmax (min, PO) (converted)) of 30 min.
